# Reference: patent publication US12226480B2, “Combination drug including TLR7 agonist” (SUMITOMO PHARMA CO., LTD., priority 2017, dated 2025)
# What was measured:
# effector memory T cell [1] = assay: Ratio of effector memory T cell in CD8-positive tumor-infiltrating lymphocytes by FACS (anti-CTLA-4 study); format: in vivo, Balb/c mice; settings: tumor on 26th day, CD8+ CD62L- CD127+, compared with the vehicle administration group, Compound 1 5 mg/kg iv, anti-CTLA-4 antibody 200 μg ip
# Experimental: (§1) 1×10^6 Cells of murine colon cancer cell line CT26 (ATCC) were transplanted to the ventral flank of 40 female 6-week-old Balb/c mice. Seven days later, the mice were divided into four groups. In vehicle administration group, saline was intravenously administered once a week, and 200 μg of Rat IgG2a isotype control antibody (Bioxcell) was intraperitoneally administered twice a week. In Compound 1 administration group, Compound 1 was intravenously administered in a dose of 5 mg/kg once a week, and 200 μg of Rat IgG2a isotype control antibody (Bioxcell) was intraperitoneally administered twice a week. In anti-CTLA-4 antibody administration group, 200 μg of anti-CTLA-4 antibody (Bioxcell) was intraperitoneally administered twice a week. In combination group of Compound 1 and anti-CTLA-4 antibody, Compound 1 was intravenously administered in a dose of 5 mg/kg once a week, and 200 μg of anti-CTLA-4 antibody (Bioxcell) was intraperitoneally administered twice a week. After the transplantation of the tumor cell, the tumor was picked out on the 26th day, and a cell suspension of the tumor was prepared by using a tumor dissociation kit (Miltenyi) and a gentle macs dissociater (Miltenyi). […] The obtained cell suspension was stained with fluoresceinated anti-CD8, anti-CD62L, and anti-CD127 antibodies, and analyzed by flow cytometry (FACS) method. […]
# MHC class I (H-2Kd) = MHC class I (H-2Kd) on tumor by flow cytometry (anti-PD-1 study); format: in vivo, Balb/c mice; settings: tumor on 23rd day, CD45-negative H-2Kd-positive fraction; Compound 1 5 mg/kg iv, anti-PD-1 antibody 200 μg ip
# Experimental: 1×10^6 Cells of murine colon cancer cell line CT26 (ATCC) were transplanted to the ventral flank of 48 female 6-week-old Balb/c mice. Five days later, the mice were divided into four groups. In vehicle administration group, saline was intravenously administered once a week, and 200 μg of Rat IgG2a isotype control antibody (Bioxcell) was intraperitoneally administered twice a week. In Compound 1 administration group, Compound 1 was intravenously administered in a dose of 5 mg/kg once a week, and 200 μg of Rat IgG2a isotype control antibody (Bioxcell) was intraperitoneally administered twice a week. In anti-PD-1 antibody administration group, 200 μg of anti-PD-1 antibody (Bioxcell) was intraperitoneally administered twice a week. In combination group of Compound 1 and anti-PD-1 antibody, Compound 1 was intravenously administered in a dose of 5 mg/kg once a week, and 200 μg of anti-PD-1 antibody (Bioxcell) was intraperitoneally administered twice a week. After the transplantation of the tumor cell, the tumor was picked out on the 23rd day, and a cell suspension of the tumor was prepared by using a tumor dissociation kit (Miltenyi) and a gentle macs dissociater (Miltenyi). The cell suspension was stained with fluoresceinated anti-CD45 antibody and anti-H-2Kd antibody, and H-2Kd on the cancer cell was detected as CD45-negative and H-2Kd-positive fractions by flow cytometry method.
# [2] = test system: murine colon cancer cell line CT26; assay: Antitumor activity of combination use of anti-PD-1 antibody and TLR7 agonist (tumor volume); format: in vivo; settings: CT26 in Balb/c mice, until 23rd day; Compound 1 5 mg/kg iv once a week, anti-PD-1 antibody 200 μg ip twice a week; versus vehicle administration group
# Experimental: 1×10^6 Cells of murine colon cancer cell line CT26 (ATCC) were transplanted to the ventral flank of 48 female 6-week-old Balb/c mice. Five days later, the mice were divided into four groups. In vehicle administration group, saline was intravenously administered once a week, and 200 μg of Rat IgG2a isotype control antibody (Bioxcell) was intraperitoneally administered twice a week. In TLR7 agonist administration group, a TLR7 agonist, N-{4-[(2-amino-4-{[(3S)-1-hydroxyhexan-3-yl]amino}-6-methylpyrimidin-5-yl)methyl]-3-methoxybenzyl}-N-(2,2,2-trifluoroethyl)glycine (hereinafter, referred to as “Compound 1”) was administered into a vein in a dose of 5 mg/kg once a week, and 200 μg of Rat IgG2a isotype control antibody (Bioxcell) was intraperitoneally administered twice a week. In anti-PD-1 antibody administration group, 200 μg of anti-PD-1 antibody (Bioxcell) was intraperitoneally administered twice a week. In combination group of Compound 1 and anti-PD-1 antibody, Compound 1 was intravenously administered in a dose of 5 mg/kg once a week, and 200 μg of anti-PD-1 antibody (Bioxcell) was intraperitoneally administered twice a week. After the transplantation of the tumor cell, the tumor volume was measured twice a week, and the body weight was checked once a week until the 23rd day. […]
# effector memory T cell [3] = assay: Ratio of effector memory T cell in CD8-positive tumor-infiltrating lymphocytes by FACS (anti-PD-1 study); format: in vivo, Balb/c mice; settings: tumor on 23rd day, CD8+ CD62L- CD127+, compared with the vehicle administration group, Compound 1 5 mg/kg iv, anti-PD-1 antibody 200 μg ip
# Experimental: as §1, with “48” for “40”, “Five” for “Seven”, “anti-PD-1” for “anti-CTLA-4”, “23rd” for “26th”, “dissociates” for “dissociater”
# [4] = test system: murine colon cancer cell line CT26; assay: Antitumor activity of combination use of anti-CTLA-4 antibody and TLR7 agonist (tumor volume); format: in vivo; settings: CT26 in Balb/c mice, until 23rd day; Compound 1 5 mg/kg iv once a week, anti-CTLA-4 antibody 200 μg ip twice a week; versus vehicle administration group
# Experimental: 1×10^6 Cells of murine colon cancer cell line CT26 (ATCC) were transplanted to the ventral flank of 40 female 7-week-old Balb/c mice. Seven days later, the mice were divided into four groups. In vehicle administration group, saline was intravenously administered once a week, and 200 μg of Rat IgG2a isotype control antibody (Bioxcell) was intraperitoneally administered twice a week. In TLR7 agonist administration group, Compound 1 was intravenously administered in a dose of 5 mg/kg once a week, and 200 μg of Rat IgG2a isotype control antibody (Bioxcell) was intraperitoneally administered twice a week. In anti-CTLA-antibody administration group, 200 μg of anti-CTLA-4 antibody (Bioxcell) was intraperitoneally administered twice a week. In combination group of Compound 1 and anti-CTLA-4 antibody, Compound 1 was intravenously administered in a dose of 5 mg/kg once a week, and 200 μg of anti-CTLA-4 antibody (Bioxcell) was intraperitoneally administered twice a week. After the transplantation of the tumor cell, the tumor volume was measured twice a week, and the body weight was checked once a week until the 23rd day. The tumor volume was obtained by measuring long axis and short axis of the tumor and calculating by a math formula of (short axis)×(short axis)×(long axis)×0.5.
# The ordinate denotes tumor volume, and the abscissa denotes elapsed days from the transplantation of the tumor cell.
compound,measurement,setting,value
"CCC[C@@H](CCO)Nc1nc(N)nc(C)c1Cc1ccc(CN(CC(=O)O)CC(F)(F)F)cc1OC [Compound 1, N-{4-[(2-amino-4-{[(3S)-1-hydroxyhexan-3-yl]amino}-6-methylpyrimidin-5-yl)methyl]-3-methoxybenzyl}-N-(2,2,2-trifluoroethyl)glycine]",ratio of effector memory T cell in CD8-positive cell,effector memory T cell [1],did not increase
same,mean fluorescent intensity (MFI) of H-2Kd,MHC class I (H-2Kd),not so different from that of the vehicle administration group
same,tumor-volume variation / tumor growth inhibition,[2],tumor growth inhibition was observed
same,ratio of effector memory T cell in CD8-positive cell,effector memory T cell [3],did not increase
same,tumor-volume variation / tumor growth inhibition,[4],not so different from that of the vehicle administration group
